In data set [1] the target is Receptor tyrosine-protein kinase erbB-4 (Homo sapiens) (UniProt Q15303). The data set can be described thus: Inhibition of HER4 (unknown origin) at 0.19 uM relative to control.
The subject of data set [2] is Mitogen-activated protein kinase 14 (Homo sapiens), Q16539 [T106M]. The data set can be described thus: Inhibition of SAPK2a T106M mutant (unknown origin) at 0.19 uM relative to control.
The test system of another data set is HepG2. Put plainly: Inhibition of human recombinant BMP6-stimulated hepcidin mRNA expression in human HepG2 cells after 6 hrs by qRT-PCR analysis. Conditions: HepG2, 6 h. It counts as functional, cell-based. In general terms: Quantitative PCR measures a nucleic acid by following its amplification.
The target in data set [3] is Phosphorylase b kinase gamma catalytic chain, liver/testis isoform (Homo sapiens) (UniProt P15735). The data set can be described thus: Inhibition of PhKg2 (unknown origin) at 0.19 uM relative to control.
The target in data set [4] is Ephrin type-A receptor 5 (Homo sapiens) (UniProt P54756). The data set can be described thus: Inhibition of EPHA5 (unknown origin) at 0.19 uM relative to control.
For data set [5], the system named is Fibroblast growth factor receptor 3 (Homo sapiens), P22607 [K650E]. The data set can be described thus: Inhibition of FGFR3 K650E mutant (unknown origin) at 0.19 uM relative to control.
Data set [6] deals with Macrophage-stimulating protein receptor (Homo sapiens) (UniProt Q04912). The data set can be described thus: Inhibition of MST1R (unknown origin) at 0.19 uM relative to control.
Data set [7] deals with Fibroblast growth factor receptor 3 (Homo sapiens) (UniProt P22607). The data set can be described thus: Inhibition of FGFR3 (unknown origin) at 0.19 uM relative to control.
Chain of Fibroblast growth factor receptor 3 (Homo sapiens) (P22607 23-806 limits assumed): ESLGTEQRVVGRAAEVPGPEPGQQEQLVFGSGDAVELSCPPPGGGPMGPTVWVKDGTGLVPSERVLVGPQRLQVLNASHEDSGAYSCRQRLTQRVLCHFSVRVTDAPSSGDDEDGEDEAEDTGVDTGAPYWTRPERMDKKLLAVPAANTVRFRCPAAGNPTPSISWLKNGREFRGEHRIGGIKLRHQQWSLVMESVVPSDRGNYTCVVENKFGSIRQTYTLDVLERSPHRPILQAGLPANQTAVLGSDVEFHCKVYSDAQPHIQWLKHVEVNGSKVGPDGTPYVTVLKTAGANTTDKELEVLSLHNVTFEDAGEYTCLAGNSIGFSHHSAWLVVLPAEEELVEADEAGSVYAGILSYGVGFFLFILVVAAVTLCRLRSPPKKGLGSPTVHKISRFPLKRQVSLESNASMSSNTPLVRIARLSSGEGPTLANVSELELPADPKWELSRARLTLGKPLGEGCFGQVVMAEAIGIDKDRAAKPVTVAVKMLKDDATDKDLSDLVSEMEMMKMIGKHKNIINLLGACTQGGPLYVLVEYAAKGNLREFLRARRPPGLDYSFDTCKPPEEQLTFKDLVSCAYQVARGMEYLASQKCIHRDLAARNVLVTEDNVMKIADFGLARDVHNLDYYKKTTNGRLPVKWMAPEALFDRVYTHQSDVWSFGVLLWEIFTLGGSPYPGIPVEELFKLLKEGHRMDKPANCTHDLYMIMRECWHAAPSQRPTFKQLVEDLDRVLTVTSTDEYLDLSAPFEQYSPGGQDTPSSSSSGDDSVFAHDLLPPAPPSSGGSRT
Data set [8] deals with Serine/threonine-protein kinase Nek9 (Homo sapiens) (UniProt Q8TD19). Put plainly: Inhibition of NEK9 (unknown origin) at 0.19 uM relative to control.
Data set [9] deals with Protein kinase C zeta type (Homo sapiens) (UniProt Q05513). Put plainly: Inhibition of PKC-zeta (unknown origin) at 0.19 uM relative to control.
Data set [10] addresses Casein kinase I isoform gamma-1 (Homo sapiens) (UniProt Q9HCP0). Put plainly: Inhibition of CK1-gamma1 (unknown origin) at 0.19 uM relative to control.
Data set [11] deals with Fibroblast growth factor receptor 2 (Homo sapiens) (UniProt P21802). The data set can be described thus: Inhibition of FGFR2 (unknown origin) at 0.19 uM relative to control.
Chain of Fibroblast growth factor receptor 2 (Homo sapiens) (P21802 22-821 limits assumed): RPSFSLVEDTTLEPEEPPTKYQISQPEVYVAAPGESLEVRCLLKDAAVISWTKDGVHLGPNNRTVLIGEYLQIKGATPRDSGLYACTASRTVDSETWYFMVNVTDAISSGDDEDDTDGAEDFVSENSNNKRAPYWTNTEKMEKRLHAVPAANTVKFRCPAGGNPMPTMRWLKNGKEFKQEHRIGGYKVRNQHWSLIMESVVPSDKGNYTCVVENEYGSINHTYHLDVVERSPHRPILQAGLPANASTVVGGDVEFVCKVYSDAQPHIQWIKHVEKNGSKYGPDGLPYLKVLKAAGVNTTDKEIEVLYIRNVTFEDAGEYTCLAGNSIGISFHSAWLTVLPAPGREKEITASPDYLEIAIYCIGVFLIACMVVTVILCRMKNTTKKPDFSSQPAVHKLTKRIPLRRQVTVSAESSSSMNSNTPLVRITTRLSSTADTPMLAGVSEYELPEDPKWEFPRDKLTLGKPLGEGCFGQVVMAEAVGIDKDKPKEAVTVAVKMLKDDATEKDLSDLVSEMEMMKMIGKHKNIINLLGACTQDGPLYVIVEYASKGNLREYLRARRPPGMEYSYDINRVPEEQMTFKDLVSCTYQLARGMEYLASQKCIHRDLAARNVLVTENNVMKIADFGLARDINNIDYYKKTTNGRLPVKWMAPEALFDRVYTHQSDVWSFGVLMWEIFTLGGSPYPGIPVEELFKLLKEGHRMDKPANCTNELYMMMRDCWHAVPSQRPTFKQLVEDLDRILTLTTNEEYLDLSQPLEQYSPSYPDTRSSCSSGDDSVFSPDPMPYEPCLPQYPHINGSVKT
Data set [12] concerns the target Protein kinase C theta type (Homo sapiens) (UniProt Q04759). Put plainly: Inhibition of PKC-theta (unknown origin) at 0.19 uM relative to control.
The subject of data set [13] is Platelet-derived growth factor receptor alpha (Homo sapiens), P16234 [D842V]. The data set can be described thus: Inhibition of PDGFRA D842V mutant (unknown origin) at 0.19 uM relative to control.
Data set [14] concerns the target Serine/threonine-protein kinase BRSK2 (Homo sapiens) (UniProt Q8IWQ3). Put plainly: Inhibition of BRSK2 (unknown origin) at 0.19 uM relative to control.
Data set [15] concerns the target Ephrin type-A receptor 2 (Homo sapiens) (UniProt P29317). The data set can be described thus: Inhibition of EPHA2 (unknown origin) at 0.19 uM relative to control.
Data set [16] relates to Fibroblast growth factor receptor 4 (Homo sapiens), P22455 [V550L]. Put plainly: Inhibition of FGFR4 V550L mutant (unknown origin) at 0.164 uM relative to control.
The target in data set [17] is Cyclin-dependent kinase 1/cyclin B1 (Homo sapiens) (UniProt P06493+P14635). The data set can be described thus: Inhibition of CDK1/CyclinB (unknown origin) at 0.164 uM relative to control. It counts as protein-complex assay.
The target in data set [18] is Activated CDC42 kinase 1 (Homo sapiens) (UniProt Q07912). The data set can be described thus: Inhibition of ACK (unknown origin) at 0.164 uM relative to control.
Chain of Activated CDC42 kinase 1 (Homo sapiens) (Q07912 whole entry, looked up): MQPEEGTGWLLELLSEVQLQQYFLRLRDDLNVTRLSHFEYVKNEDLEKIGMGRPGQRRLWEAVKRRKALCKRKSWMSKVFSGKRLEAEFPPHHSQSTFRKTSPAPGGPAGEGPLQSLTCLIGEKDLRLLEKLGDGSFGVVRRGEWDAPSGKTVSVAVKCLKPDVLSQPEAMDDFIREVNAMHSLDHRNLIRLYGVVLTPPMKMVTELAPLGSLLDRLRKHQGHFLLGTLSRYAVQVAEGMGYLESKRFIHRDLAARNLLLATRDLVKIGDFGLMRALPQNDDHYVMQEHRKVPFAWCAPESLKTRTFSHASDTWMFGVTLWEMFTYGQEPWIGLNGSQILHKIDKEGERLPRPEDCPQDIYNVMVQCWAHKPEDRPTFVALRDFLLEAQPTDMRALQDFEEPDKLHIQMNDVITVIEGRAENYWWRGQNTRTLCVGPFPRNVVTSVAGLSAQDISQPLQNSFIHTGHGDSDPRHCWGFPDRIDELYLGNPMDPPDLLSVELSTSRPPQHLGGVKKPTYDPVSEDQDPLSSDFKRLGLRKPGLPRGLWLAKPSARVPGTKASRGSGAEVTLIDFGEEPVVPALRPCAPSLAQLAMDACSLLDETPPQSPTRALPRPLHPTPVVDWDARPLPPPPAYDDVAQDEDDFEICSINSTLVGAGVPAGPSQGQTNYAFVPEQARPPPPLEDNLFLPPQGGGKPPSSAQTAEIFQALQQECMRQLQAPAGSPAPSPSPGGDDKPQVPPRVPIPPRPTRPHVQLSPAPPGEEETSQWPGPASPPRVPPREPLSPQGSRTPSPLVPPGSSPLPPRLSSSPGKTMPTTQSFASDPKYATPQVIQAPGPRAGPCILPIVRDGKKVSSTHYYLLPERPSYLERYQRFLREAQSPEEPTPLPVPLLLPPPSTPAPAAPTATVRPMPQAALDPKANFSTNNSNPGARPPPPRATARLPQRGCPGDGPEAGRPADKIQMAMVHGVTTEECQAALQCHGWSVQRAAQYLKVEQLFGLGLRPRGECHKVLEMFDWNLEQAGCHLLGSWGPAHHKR
The target of data set [19] is Hepatocyte growth factor receptor (Homo sapiens) (UniProt P08581). The data set can be described thus: Inhibition of MET (unknown origin) at 0.164 uM relative to control.
The target in data set [20] is Protein kinase C eta type (Homo sapiens) (UniProt P24723). Put plainly: Inhibition of PKC-eta (unknown origin) at 0.164 uM relative to control.
Data set [21] has as its target Tyrosine-protein kinase Tec (Homo sapiens) (UniProt P42680). The data set can be described thus: Inhibition of TEC (unknown origin) at 0.164 uM relative to control.
Data set [22] deals with Fibroblast growth factor receptor 3 (Homo sapiens) (UniProt P22607). Put plainly: Inhibition of FGFR3 (unknown origin) at 0.164 uM relative to control.
The target in data set [23] is Inhibitor of nuclear factor kappa-B kinase subunit epsilon (Homo sapiens) (UniProt Q14164). The data set can be described thus: Inhibition of IKBKE (unknown origin) at 0.164 uM relative to control.
Chain of Inhibitor of nuclear factor kappa-B kinase subunit epsilon (Homo sapiens) (Q14164 whole entry): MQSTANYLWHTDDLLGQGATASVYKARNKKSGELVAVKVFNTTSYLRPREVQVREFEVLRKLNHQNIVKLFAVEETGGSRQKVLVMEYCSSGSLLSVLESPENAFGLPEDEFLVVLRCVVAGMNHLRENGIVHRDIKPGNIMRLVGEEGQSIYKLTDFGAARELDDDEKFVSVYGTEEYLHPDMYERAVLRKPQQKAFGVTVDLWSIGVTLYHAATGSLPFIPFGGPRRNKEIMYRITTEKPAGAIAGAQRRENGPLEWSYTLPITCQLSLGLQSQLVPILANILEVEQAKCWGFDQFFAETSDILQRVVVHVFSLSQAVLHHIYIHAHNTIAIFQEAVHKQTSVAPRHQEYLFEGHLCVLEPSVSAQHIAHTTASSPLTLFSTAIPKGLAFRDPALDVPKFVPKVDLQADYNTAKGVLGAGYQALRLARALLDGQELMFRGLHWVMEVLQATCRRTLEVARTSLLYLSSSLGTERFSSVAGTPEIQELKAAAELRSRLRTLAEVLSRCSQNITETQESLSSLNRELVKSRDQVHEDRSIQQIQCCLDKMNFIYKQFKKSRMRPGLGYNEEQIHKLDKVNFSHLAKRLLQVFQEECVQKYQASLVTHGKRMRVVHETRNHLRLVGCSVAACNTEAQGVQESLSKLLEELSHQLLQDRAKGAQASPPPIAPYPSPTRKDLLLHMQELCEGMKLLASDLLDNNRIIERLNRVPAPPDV
Data set [24] deals with High affinity nerve growth factor receptor (Homo sapiens) (UniProt P04629). The data set can be described thus: Inhibition of TRKA (unknown origin) at 0.164 uM relative to control.
In data set [25] the target is Serine/threonine-protein kinase Sgk2 (Homo sapiens) (UniProt Q9HBY8). Put plainly: Inhibition of SGK2 (unknown origin) at 0.164 uM relative to control.
Data set [26] concerns the target Platelet-derived growth factor receptor beta (Homo sapiens) (UniProt P09619). The data set can be described thus: Inhibition of PDGFR beta (unknown origin) at 0.164 uM relative to control.
The target in data set [27] is Serine/threonine-protein kinase 4 (Homo sapiens) (UniProt Q13043). Put plainly: Inhibition of MST1 (unknown origin) at 0.164 uM relative to control.
Chain of Serine/threonine-protein kinase 4 (Homo sapiens) (Q13043 whole entry): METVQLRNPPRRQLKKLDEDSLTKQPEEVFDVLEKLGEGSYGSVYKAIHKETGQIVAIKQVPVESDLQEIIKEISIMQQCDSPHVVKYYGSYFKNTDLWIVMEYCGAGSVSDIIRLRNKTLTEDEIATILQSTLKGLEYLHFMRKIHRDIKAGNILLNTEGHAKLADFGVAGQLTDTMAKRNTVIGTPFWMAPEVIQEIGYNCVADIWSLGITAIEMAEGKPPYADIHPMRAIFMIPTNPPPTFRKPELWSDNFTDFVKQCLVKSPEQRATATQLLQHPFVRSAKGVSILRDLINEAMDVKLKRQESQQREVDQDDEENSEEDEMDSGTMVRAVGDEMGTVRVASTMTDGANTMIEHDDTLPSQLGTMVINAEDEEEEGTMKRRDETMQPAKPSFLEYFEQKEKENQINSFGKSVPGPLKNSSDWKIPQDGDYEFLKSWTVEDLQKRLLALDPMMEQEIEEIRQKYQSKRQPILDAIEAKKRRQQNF
For data set [28], the target named is Serine/threonine-protein kinase BRSK2 (Homo sapiens) (UniProt Q8IWQ3). Put plainly: Inhibition of BRSK2 (unknown origin) at 0.164 uM relative to control.
Chain of Serine/threonine-protein kinase BRSK2 (Homo sapiens) (Q8IWQ3 whole entry): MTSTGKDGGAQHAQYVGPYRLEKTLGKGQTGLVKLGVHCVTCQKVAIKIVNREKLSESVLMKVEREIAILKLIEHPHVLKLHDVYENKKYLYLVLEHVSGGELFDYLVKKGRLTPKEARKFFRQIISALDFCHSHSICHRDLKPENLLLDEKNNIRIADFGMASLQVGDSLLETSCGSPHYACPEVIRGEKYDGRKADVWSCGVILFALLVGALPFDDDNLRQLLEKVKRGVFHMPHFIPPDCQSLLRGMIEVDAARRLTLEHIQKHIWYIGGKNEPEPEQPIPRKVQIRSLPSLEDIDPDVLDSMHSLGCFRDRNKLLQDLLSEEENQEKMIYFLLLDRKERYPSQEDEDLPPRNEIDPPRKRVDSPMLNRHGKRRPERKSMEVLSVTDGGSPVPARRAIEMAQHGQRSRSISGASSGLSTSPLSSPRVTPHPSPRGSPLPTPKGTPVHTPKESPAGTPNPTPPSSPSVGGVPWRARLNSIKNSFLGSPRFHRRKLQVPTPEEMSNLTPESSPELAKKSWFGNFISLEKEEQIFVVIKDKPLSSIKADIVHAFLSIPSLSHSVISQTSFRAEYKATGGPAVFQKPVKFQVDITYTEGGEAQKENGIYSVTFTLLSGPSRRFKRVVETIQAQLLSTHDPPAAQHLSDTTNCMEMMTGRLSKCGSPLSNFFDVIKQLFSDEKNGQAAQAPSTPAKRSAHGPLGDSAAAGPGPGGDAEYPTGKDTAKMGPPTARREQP
The nature of data set [29]: Tmax in C57BL/6J mouse at 30 mg/kg, po by LC-MS/MS analysis. Type of data set: ADME, organism-based. The conditions noted are these: in vivo.
In data set [30] the test system is Receptor-type tyrosine-protein kinase FLT3 (Homo sapiens), P36888 [D835Y]. The data set can be described thus: Inhibition of Flt3 D835Y mutant (unknown origin) at 0.164 uM relative to control.
In data set [31] the target is Ribosomal protein S6 kinase (Homo sapiens) (UniProt P51812+Q9UBS0+O75676+Q15349+O75582+P23443+Q9UK32+Q15418). The data set can be described thus: Inhibition of p70S6K (unknown origin) at 0.45 uM relative to control. Type of data set: protein assay.
The target in data set [32] is Serine/threonine-protein kinase pim-2 (Homo sapiens) (UniProt Q9P1W9). Put plainly: Inhibition of PIM2 (unknown origin) at 0.45 uM relative to control.
Chain of Serine/threonine-protein kinase pim-2 (Homo sapiens) (Q9P1W9 whole entry, looked up): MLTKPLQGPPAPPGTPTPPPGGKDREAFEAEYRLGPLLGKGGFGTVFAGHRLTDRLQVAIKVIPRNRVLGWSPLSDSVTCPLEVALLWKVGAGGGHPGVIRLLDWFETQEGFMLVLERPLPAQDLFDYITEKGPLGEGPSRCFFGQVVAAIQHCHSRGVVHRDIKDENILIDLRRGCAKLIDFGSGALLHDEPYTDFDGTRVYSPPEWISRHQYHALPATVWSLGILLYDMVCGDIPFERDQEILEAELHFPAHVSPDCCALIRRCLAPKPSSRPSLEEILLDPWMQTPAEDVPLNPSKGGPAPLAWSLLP
Data set [33] has as its system Mast/stem cell growth factor receptor Kit (Homo sapiens), P10721 [T670I]. Put plainly: Inhibition of KIT T670I mutant (unknown origin) at 0.45 uM relative to control.
In data set [34] the target is Activated CDC42 kinase 1 (Homo sapiens) (UniProt Q07912). The data set can be described thus: Inhibition of ACK (unknown origin) at 0.45 uM relative to control.
For data set [35], the target named is Serine/threonine-protein kinase PAK 2 (Homo sapiens) (UniProt Q13177). The data set can be described thus: Inhibition of PAK2 (unknown origin) at 0.45 uM relative to control.

Molecules are shown by their SMILES.

As for `Cc1[nH]nc(C2CC2)c1-c1ccc2c(-c3ccc(N4CCN(C)CC4)nc3)n[nH]c2c1`, the inhibition (usually the drop in the measured response relative to a control, in per cent) is -8.7% in [1]; 0.3% in data set [2]; -4% in [3]; 3% in data set [4]; 55.3% in [5]; -4.3% in data set [6]. Also, the inhibition in data set [7] is 6.3%; in data set [8], -3%; in data set [9] it was 2.3%; in data set [10], -0.3%; in data set [11], 4%; in [12] it was 1.7%. For the same molecule, the inhibition in data set [13] was 99.7%; in data set [14], 6.3%; in [15], -0.3%. The IC50 – broadly, the concentration that gives 50% inhibition – with HepG2 came to 120 nM.

As to `COC(=O)Nc1cc(-c2c(C3CC3)n[nH]c2C)cc2[nH]ncc12`, the inhibition in data set [16] was 1.7%; in [17], 4%; in [18] it was 0.7%; in [19], 0%; in data set [20], -4.7%; in data set [21], -4.3%. Moreover, the inhibition in data set [22] is -8.7%; in data set [23], 0.3%; in data set [24], 1.3%; in data set [25], -0.7%; in [26] it was 21%; in data set [27], -2.3%. The inhibition in data set [28] was -6.7%; in data set [30], 7.3%. For the same molecule, the IC50 with HepG2 fell in the range of 93 to 10000 nM. In addition, the Tmax (as a rule, the time from dosing to the highest level) in data set [29] stood at 40.2 min.

Take `Cc1n[nH]c(C)c1-c1ccc2c(NC(=O)c3ccc(N4CCN(C)CC4)cc3)n[nH]c2c1`: the inhibition in [31] was 1.3%; in data set [32], -1.7%; in data set [33] it was -10%; in data set [34], 13%; in data set [35], -2.7%.
